Test results taken from patent US5602229A, “Pentapeptide antibiotics” (Gruppo Lepetit S.p.A., priority 1989, dated 1997).
Read-outs that look alike come from different tables or passages of the source.

Key:
[1] = system: Staphylococcus aureus Tour; experiment: In vitro MIC, two-fold dilution test in microtiter; assay type: cell-based; conditions: Oxoid ISO-SENSITEST broth, inoculum about 10^4 CFU/ml, 18-24 h at 37° C.
Experimental: (§1) Broth cultures are diluted enough so that the final inoculum is about 10^4 colony forming units/ml (CFU/ml).

[2] = system: Streptococcus pneumoniae UC41; experiment: In vitro MIC, two-fold dilution test in microtiter; assay type: cell-based; conditions: Difco Todd-Hewitt broth, inoculum about 10^4 CFU/ml, 18-24 h at 37° C.
Experimental: as §1

[3] = system: Strept. pyogenes C 203; experiment: In vitro MIC, two-fold dilution test in microtiter; assay type: cell-based, Streptococcus pyogenes; conditions: Difco Todd-Hewitt broth, inoculum about 10^4 CFU/ml, 18-24 h at 37° C.
Experimental: as §1

[4] = Acid-base titration (pKa); assay type: physicochemical
Experimental: Acid-base titrations were carried out under the following conditions: the sample was dissolved in a mixture methyl cellosolve/H2 O 4/1, then an excess of 0.01M HCl in the same solvent mixture was added and the resulting solution was titrated with 0.01N NaOH.

[5] = system: Streptococcus mitis 796; experiment: In vitro MIC, two-fold dilution test in microtiter; assay type: cell-based; conditions: inoculum about 10^4 CFU/ml, 18-24 h at 37° C.
Experimental: as §1

[6] = system: Staphylococcus epidermidis ATCC 12228; experiment: In vitro MIC, two-fold dilution test in microtiter; assay type: cell-based; conditions: Oxoid ISO-SENSITEST broth, inoculum about 10^4 CFU/ml, 18-24 h at 37° C.
Experimental: as §1

[7] = system: Streptococcus faecalis ATCC 7080; experiment: In vitro MIC, two-fold dilution test in microtiter; assay type: cell-based; conditions: Oxoid ISO-SENSITEST broth, inoculum about 10^4 CFU/ml, 18-24 h at 37° C.
Experimental: as §1

[8] = methyl cellosolve/H2O 4/1, excess 0.01M HCl, titrated with 0.01N NaOH

Substance | MIC, STAPH. AUREUS TOUR [1] [micrograms/ml] | MIC, STREPT. PNEUMONIAE UC 41 [2] [micrograms/ml] | MIC, STREPT. PYOGENES C 203 [3] [micrograms/ml] | pKa1 [4] | pKa2 [4] | pKa3 [4] | pKa1 [4, 8] | pKa2 [4, 8] | pKa3 [4, 8] | MIC, STREPT. MITIS 796 [5] [micrograms/ml] | MIC, STAPH. EPIDERMIDIS ATCC 12228 [6] [micrograms/ml] | MIC, STREPT. FAECALIS ATCC 7080 [7] [micrograms/ml]
reductive cleavage product of antibiotic A/40926 [Example 9] | 16 | 16 | 2 | 4.5 | 5.9 | 7.5 | – | – | – | – | – | –
reductive cleavage product of antibiotic L 17046 [Example 4] | – | – | – | – | – | – | 4.6 | 5.8 | 7.5 | – | – | –
reductive cleavage product of antibiotic L 17054 [Example 3] | – | – | – | – | – | – | 4.7 | – | – | – | – | –
reductive cleavage product of antibiotic L 17392 [Example 5] | 4 | 16 | 8 | 4.5 | 5.5 | – | – | – | – | 16 | 2 | 16
reductive cleavage product of ristocetin [Example 8] | – | – | – | – | – | – | – | 6.2 | 7.8 | – | – | –
reductive cleavage product of teicoplanin A2 component 2 [Example 2] | 8 | 4 | 1 | 4.1 | 5.9 | 7.3 | – | – | – | 4 | 2 | 4
reductive cleavage product of vancomycin [Example 6] | 16 | – | 8 | – | – | – | – | – | – | – | 32 | 16
